Experiment [1] concerns the target T1, E. coli CFT073 PapG-II lectin domain PapGLD variant N96S G104A, SEQ ID NO: 16 (Escherichia coli, UniProt A0A0H2VAQ6, G124A/N116S).
T1 sequence (A0A0H2VAQ6 with tags, fused parts or gaps N116S/G124A): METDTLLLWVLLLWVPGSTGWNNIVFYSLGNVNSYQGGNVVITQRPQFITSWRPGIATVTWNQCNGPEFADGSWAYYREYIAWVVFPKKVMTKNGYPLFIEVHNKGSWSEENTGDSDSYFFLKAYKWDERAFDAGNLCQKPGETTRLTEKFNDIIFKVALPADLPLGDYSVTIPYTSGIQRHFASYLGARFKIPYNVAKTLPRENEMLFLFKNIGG
The experiment can be described thus: PapG Luminex ligand binding at equilibrium. The note with it: for Kd: HEPES pH 7.4, 4° C. overnight. As for the experimental part:
(§1) To determine the ability of PapGLD mutants to bind the porcine derived globotetraosyl ceramide ligand GalNAc-Gal-Gal-Glc-ceramide (GbO4), a Luminex ligand binding assay was developed. Surfactant Protein-A (SP-A) was coupled to the surface of MagPlex beads by EDC/NHS, to capture the lipid tail of the globotetraosyl ceramide. The Globotetraosyl ceramide/SP-A beads were incubated with an eight-point threefold titration of PapG in a 96 well flat bottom white plate with final volume of 100 microliters of 50 mM HEPES PH 7.4, 10 mM NaCl, 0.0005% Tween 20 shaking at 300 rpm, 4° C. overnight. After 20-24 hours the ligand binding plates were read on a FlexMap 3D plate reader for measurement of well-bead region specific MFI. Ligand binding equilibrium dissociation constants (Kd) were calculated assuming one site specific binding and interpolated using non-linear curve fitting (GraphPad Prism) as the ligand concentration needed to achieve half-maximal binding. The Luminex derived apparent Kd values are based on approximately fifty bead counts per assay sample.
(§2) To determine Luminex ligand binding affinities of PapG mutants for the synthetic globoside ligand Gal-Glc-phenoxy-octyl-amine (GbO2Mpo), a Luminex ligand binding assay was developed based on the direct coupling of the amine reactive globoside ligand to the EDC/NHS activated carboxylic surface of MagPlex beads. Synthesis of GbO2Mpo ligand with an octyl amine linker (for coupling to beads) was performed via methods described previously. The GbO2Mpo beads were incubated with an 8-point, threefold titration of PapG in a 96-well flat bottom white plate with final volume of 100 μl of 50 mM HEPES pH 7.4, 10 mM NaCl, 0.0005% Tween 20 shaking at 300 rpm, 4° C. overnight. After 20-24 hours the ligand binding plates were read on a FlexMap 3D plate reader for measurement of well-bead region specific MFI.
(§3) Binding of PapG proteins to GbO2 or GbO4 ligands was evaluated using a Luminex platform wherein ligands were coupled to MagPlex beads via surfactant protein A (for […]) or directly using […] conjugation (for […]). This assay was used to rank order binding affinities of the mutants, reported as Kd values interpolated from protein antigen titration curves (Table 7).

In experiment [2] the target is T2, E. coli CFT073 PapG-II lectin domain PapGLD variant N96S G18A, SEQ ID NO: 18 (Escherichia coli, UniProt A0A0H2VAQ6, G38A/N116S).
T2 sequence (A0A0H2VAQ6 with tags, fused parts or gaps G38A/N116S): T1 sequence (A0A0H2VAQ6 with tags, fused parts or gaps N116S/G124A) with G38A, A124G
The experiment can be described thus: PapG Luminex ligand binding at equilibrium. The note with it: HEPES pH 7.4, 4° C. overnight. As for the experimental part: as §1, §2, §3

Where [3] appears, read: GbO2Mpo beads, read-out: Kd (GbO2).
Where [4] appears, read: GbO4 beads, read-out: Kd (GbO4).

Numbering of substitutions follows the chain as printed. “Also recorded” adds a separate entry of the source. Like-named read-outs stand apart in the source and are kept apart here.

As usually defined, the Kd is the concentration at which binding is half-saturated. As for Gal-Glc-phenoxy-octyl-amine [GbO2], the Kd was above 300 nM in experiment [1] (setting [3]) and 1.8 nM in experiment [2] (setting [3]).

GalNAc-Gal-Gal-Glc-ceramide [GbO4]: the “binding to GbO4 (in words)” value in experiment [1] is reported as “lower the binding affinity; also recorded: eliminate ligand binding”. Further, the Kd in experiment [1] (setting [4]) is above 300 nM; in experiment [2] (setting [4]), above 10 nM.
